The values that follow come from ChEMBL document CHEMBL1641553, “Antimalarials based on the dioxane scaffold of plakortin. A concise synthesis and SAR studies” (Bioorg Med Chem, 2011).

One may read the IC50 as the point on the concentration scale where inhibition reaches its midpoint.

Test [1] concerns Plasmodium falciparum. The test is described as follows: Antimalarial activity against chloroquine-resistant Plasmodium falciparum W2 infected in human A-positive red blood cells after 72 hrs by lactate dehydrogenase assay. In kind it is functional, organism-based. The settings on record: W2, 72 h.
Test [2] has as its system Plasmodium falciparum. Description: Antimalarial activity against chloroquine-sensitive Plasmodium falciparum D10 infected in human A-positive red blood cells after 72 hrs by lactate dehydrogenase assay. It counts as functional, organism-based. The following applies: D10, 72 h.

On to `CCCCC[C@@H]1OO[C@H](CC(=O)OCC)[C@@H](O)[C@H]1O`, for which the IC50 in the test on Plasmodium falciparum [1] and with Plasmodium falciparum [2] was more than 30 µM throughout.

Regarding `CCCCCC/C=C/C=C/C(=O)OCC`, the half-maximal inhibitory concentration (IC50) turned out to be 0.43 µM with Plasmodium falciparum [1] and 0.9 µM in the test on Plasmodium falciparum [2].

Regarding `CCCCC[C@@H]1OO[C@H](CC(=O)OCC)[C@H](Br)[C@H]1Br`, the IC50 with Plasmodium falciparum [1] was found to be 5.65 µM; in the test on Plasmodium falciparum [2], 9.12 µM.

Turning to `CCCCC[C@H]1C=C[C@@H](CCOC(C)=O)OO1`, the IC50 in the test on Plasmodium falciparum [1] turned out to be 12.5 µM; with Plasmodium falciparum [2] it was 21.9 µM.

Turning to `CCCCC[C@H]1C=C[C@@H](CC(=O)OCC)OO1`, the IC50 in the test with Plasmodium falciparum [1] was 1.49 µM; in the test with Plasmodium falciparum [2] it was 1.2 µM.

`CCCCC[C@@H]1OO[C@H](CC(=O)OCC)[C@@H](Br)[C@@H]1Br`: the 50% inhibitory concentration (IC50) is 5.11 µM in the test on Plasmodium falciparum [1] and 8.15 µM in the test with Plasmodium falciparum [2].

With `CCCCC[C@H](O)/C=C\[C@@H](CC(=O)OCC)OCCCC`, the 50% inhibitory concentration (IC50) with Plasmodium falciparum [1] and in the test on Plasmodium falciparum [2] was more than 30 µM in each case.

Take `CCCCC[C@H]1C=C[C@@H](CCO)OO1`: the 50% inhibitory concentration (IC50) with Plasmodium falciparum [1] and with Plasmodium falciparum [2] was more than 30 µM throughout.

Regarding `CCCCC[C@@H]1OO[C@H](CC(=O)OCC)[C@H]2O[C@H]21`, the IC50 in the test with Plasmodium falciparum [1] was found to be 10.3 µM; with Plasmodium falciparum [2], 22.1 µM.

Turning to `CCCCC[C@@H]1OO[C@H](CC(=O)OCC)[C@@H]2O[C@@H]21`, the concentration for half-maximal inhibition (IC50) with Plasmodium falciparum [1] and in the test on Plasmodium falciparum [2] was more than 30 µM throughout.

For `CCCCCC/C=C/C=O` [2-NONENAL], the IC50 in the test on Plasmodium falciparum [1] came out at 0.39 µM; in the test on Plasmodium falciparum [2], 0.87 µM.

With `CCCCC[C@H]1C=C[C@@H](CC(=O)O)OO1`, the concentration for half-maximal inhibition (IC50) with Plasmodium falciparum [1] was 3.42 µM; in the test on Plasmodium falciparum [2], 3.33 µM.
